Patent US20250019370A1, “L-LYSINE SALT OF 4-CHLORO-5-[4-(2,6-DICHLOROPHENYL)SULFONYLPIPERAZIN-1-YL]-1-BENZOFURAN-2-CARBOXYLIC ACID AND VARIOUS FORMS THEREOF” (ENYO PHARMA, priority 2023, published 2025)

Key:
[1] = Polymorph screening (solids analysed by XRPD); assay type: physicochemical; conditions: form I as starting material
Protocol: A polymorph screening was performed on EYP001 L-lysine salt crystalline form I (form I as starting material unless otherwise specified).
A number of unique materials with different patterns were produced, including crystalline forms I-IV and an amorphous material. All solids from the screening experiments were analysed by XRPD analysis and the resulting patterns compared to that of the reference. The observed solids and their ways of obtention are described in Table 16.

[2] = Pharmacokinetic study Experiment #2, oral administration in rats; assay type: in vivo, rat; conditions: 50 mg EqEYP001/Kg
Protocol: In a second study (Experiment #2), EYP001 and EYP001 L-lysine salt Form I in aqueous formulations (0.5% CMC, 0.25% Tween 80, water) were orally administrated at a dose of 50 mg EqEYP001/Kg in 8 male rats for each compound. Blood samples were taken at 0.25 h, 0.5 h, 1 h, 2 h, 4 h, 6 h, 8 h, 12 h, and 24 h after oral administration.

[3] = Thermogravimetric analysis (TGA), mass losses upon heating; assay type: physicochemical; conditions: listed as EYP001 L-lysine salt (sample A)
Protocol: Thermogravimetric analysis was performed on a TA Instruments TGA Hi-Res 2950 apparatus equipped with an evolved gas analysis furnace. A sample was placed in an opened aluminium basket and analysed according to the following conditions: […]

[4] = Entry 1: no solvent, 23% RH stress
[5] = Entry 2: no solvent, 40° C./75% RH stress
[6] = Entry 3: no solvent, 59% RH stress
[7] = Entry 7: no solvent, melt quench
[8] = Entry 8: no solvent, compression
[9] = Entry 13: DMSO, slurry (20° C.)
[10] = Entry 14: EtOAc, slurry (5° C.)
[11] = Entry 15: water, slurry (5° C.)
[12] = Entry 16: THF, flash evaporation
[13] = Entry 17: THF, flash evaporation
[14] = Entry 18: acetone, flash evaporation
[15] = Entry 19: DMSO, flash evaporation
[16] = Entry 20: EtOAc, flash evaporation
[17] = Entry 21: IPA, flash evaporation
[18] = Entry 22: water, flash evaporation
[19] = Entry 23: MeOH, flash evaporation
[20] = Entry 24: EtOH, flash evaporation
[21] = Entry 25: heptane, flash evaporation
[22] = Entry 26: EtOH, flash evaporation
[23] = Entry 27: THF/water (82:18% v/v), flash evaporation
[24] = Entry 29: acetone, slurry (5° C.)
[25] = Entry 30: DMSO, slurry (20° C.)
[26] = Entry 31: EtOAc, slurry (5° C.)
[27] = Entry 33: water, slurry (5° C.)
[28] = Entry 36: heptane, slurry (5° C.)
[29] = Entry 37: THF/water (82:18% v/v), slurry (5° C.)
[30] = Entry 39: acetone, slurry (60° C.)
[31] = Entry 40: DMSO, slurry (60° C.)
[32] = Entry 41: EtOAc, slurry (60° C.)
[33] = Entry 43: water, slurry (60° C.)
[34] = Entry 44: MeOH, slurry (60° C.)
[35] = Entry 45: EtOH, slurry (60° C.)
[36] = Entry 46: heptane, slurry (60° C.)
[37] = Entry 47: EtOH /water (96:4% v/v), slurry (60° C.)
[38] = Entry 49: acetone, vapour stress
[39] = Entry 56: heptane, vapour stress
[40] = Entry 58: THF/water (82:18% v/v), anti-solvent THF, vapour diffusion
[41] = Entry 59: THF/water (82:18% v/v), anti-solvent IPA, vapour diffusion
[42] = Entry 60: THF/water (82:18% v/v), anti-solvent EtOAc, vapour diffusion
[43] = Entry 61: acetone/water (50:50% v/v), slow cool
[44] = Entry 62: DMSO/water (80:20% v/v), slow cool
[45] = Entry 64: IPA/water (80:20% v/v), slow cool
[46] = Entry 65: MEOH/water (84:16% v/v), slow cool
[47] = Entry 66: THF/water (82:18% v/v), slow cool
[48] = Entry 67: THF/water (82:18% v/v), crash precipitation
[49] = Entry 69: DMSO, anti-solvent EtOAc, crash precipitation
[50] = Entry 70: THF/water (82:18% v/v), temperature cycle
[51] = Entry 71: DMSO/water (80:20% v/v), temperature cycle
[52] = Entry 72: MeOH/water (84:16% v/v), temperature cycle
[53] = male rats, versus EYP001 free acid

Compound: NCCCC[C@H](N)C(=O)O.O=C(O)c1cc2c(Cl)c(N3CCN(S(=O)(=O)c4c(Cl)cccc4Cl)CC3)ccc2o1 [EYP001 L-lysine salt Form I, L-lysine salt of 4-chloro-5-[4-(2,6-dichlorophenyl)sulfonylpiperazin-1-yl]-1-benzofuran-2-carboxylic acid]
- Results [1, 4]: solid
- XRPD [1, 4]: Form I
- Results [1, 5]: solid
- XRPD [1, 5]: Form I
- Results [1, 6]: solid
- XRPD [1, 6]: Form I
- Results [1, 7]: solid
- XRPD [1, 7]: Amorphous
- Results [1, 8]: solid
- XRPD [1, 8]: Form I
- Results ([1]; Entry 10: no solvent, milling): solid
- XRPD ([1]; Entry 10: no solvent, milling): Amorphous
- Results ([1]; Entry 12: THF, slurry (50° C.)): solid
- XRPD ([1]; Entry 12: THF, slurry (50° C.)): Amorphous
- Results [1, 9]: solid
- XRPD [1, 9]: Form I
- Results [1, 10]: solid
- XRPD [1, 10]: Form I
- Results [1, 11]: solid
- XRPD [1, 11]: Form III
- Results [1, 12]: no solid
- XRPD [1, 12]: Amorphous
- Results [1, 13]: solid
- XRPD [1, 13]: Form II
- Results [1, 14]: solid
- XRPD [1, 14]: Amorphous
- Results [1, 15]: solid
- XRPD [1, 15]: Form I
- Results [1, 16]: solid
- XRPD [1, 16]: Amorphous
- Results [1, 17]: solid
- XRPD [1, 17]: Amorphous
- Results [1, 18]: solid
- XRPD [1, 18]: Form I
- Results [1, 19]: solid
- XRPD [1, 19]: Form I
- Results [1, 20]: solid
- XRPD [1, 20]: Form I
- Results [1, 21]: solid
- XRPD [1, 21]: Form II
- Results [1, 22]: solid
- XRPD [1, 22]: Form I
- Results [1, 23]: solid
- XRPD [1, 23]: Form I
- Results ([1]; Entry 28: THF, slurry (5° C.)): solid
- XRPD ([1]; Entry 28: THF, slurry (5° C.)): Form I
- Results [1, 24]: solid
- XRPD [1, 24]: Form I
- Results [1, 25]: solid
- XRPD [1, 25]: Amorphous
- Results [1, 26]: solid
- XRPD [1, 26]: Form I
- Results ([1]; Entry 32: IPA, slurry (5° C.)): solid
- XRPD ([1]; Entry 32: IPA, slurry (5° C.)): Form I
- Results [1, 27]: solid
- XRPD [1, 27]: Form III
- Results ([1]; Entry 34: MeOH, slurry (5° C.)): solid
- XRPD ([1]; Entry 34: MeOH, slurry (5° C.)): Form IV
- Results ([1]; Entry 35: EtOH, slurry (5° C.)): solid
- XRPD ([1]; Entry 35: EtOH, slurry (5° C.)): Form I
- Results [1, 28]: solid
- XRPD [1, 28]: Amorphous
- Results [1, 29]: solid
- XRPD [1, 29]: Form I
- Results ([1]; Entry 38: THF, slurry (60° C.)): solid
- XRPD ([1]; Entry 38: THF, slurry (60° C.)): Form I
- Results [1, 30]: solid
- XRPD [1, 30]: Amorphous
- Results [1, 31]: solid
- XRPD [1, 31]: Form I
- Results [1, 32]: solid
- XRPD [1, 32]: Form I
- Results ([1]; Entry 42: IPA, slurry (60° C.)): solid
- XRPD ([1]; Entry 42: IPA, slurry (60° C.)): Form I
- Results [1, 33]: solid
- XRPD [1, 33]: Form III
- Results [1, 34]: solid
- XRPD [1, 34]: Form I
- Results [1, 35]: solid
- XRPD [1, 35]: Form I
- Results [1, 36]: solid
- XRPD [1, 36]: Amorphous
- Results [1, 37]: solid
- XRPD [1, 37]: Form I
- Results ([1]; Entry 48: THF, vapour stress): solid
- XRPD ([1]; Entry 48: THF, vapour stress): Amorphous
- Results [1, 38]: solid
- XRPD [1, 38]: Amorphous
- Results ([1]; Entry 50: DMSO, vapour stress): solid
- XRPD ([1]; Entry 50: DMSO, vapour stress): Amorphous
- Results ([1]; Entry 51: EtOAc, vapour stress): solid
- XRPD ([1]; Entry 51: EtOAc, vapour stress): Form I
- Results ([1]; Entry 52: IPA, vapour stress): solid
- XRPD ([1]; Entry 52: IPA, vapour stress): Form I
- Results ([1]; Entry 53: water, vapour stress): solid
- XRPD ([1]; Entry 53: water, vapour stress): Form I
- Results ([1]; Entry 54: MeOH, vapour stress): solid
- XRPD ([1]; Entry 54: MeOH, vapour stress): Form I
- Results ([1]; Entry 55: EtOH, vapour stress): solid
- XRPD ([1]; Entry 55: EtOH, vapour stress): Form I
- Results [1, 39]: solid
- XRPD [1, 39]: Amorphous
- Results ([1]; Entry 57: THF/water (82:18% v/v), vapour stress): solution
- Results [1, 40]: solid
- XRPD [1, 40]: Form I
- Results [1, 41]: solid
- XRPD [1, 41]: Form I
- Results [1, 42]: solid
- XRPD [1, 42]: Form I
- Results [1, 43]: solid
- XRPD [1, 43]: Form I
- Results [1, 44]: solid
- XRPD [1, 44]: Form I
- Results ([1]; Entry 63: water, slow cool): solid
- XRPD ([1]; Entry 63: water, slow cool): Form III
- Results [1, 45]: solid
- XRPD [1, 45]: Form I
- Results [1, 46]: solid
- XRPD [1, 46]: Form I
- Results [1, 47]: solid
- XRPD [1, 47]: Form I
- Results [1, 48]: solid
- XRPD [1, 48]: Form I
- Results ([1]; Entry 68: DMSO, anti-solvent THF, crash precipitation): no solid
- Results [1, 49]: solid
- XRPD [1, 49]: Amorphous
- Results [1, 50]: solid
- XRPD [1, 50]: Form I
- Results [1, 51]: solid
- XRPD [1, 51]: Form I
- Results [1, 52]: solid
- XRPD [1, 52]: Form I
- Mean AUC0-24 ([2]; male rats, aqueous formulation): 42500 ng·h/mL
- Mean Cmax ([2]; male rats, aqueous formulation): 7870 ng/mL
- % increase/EYP001 (AUC0-24) [2, 53]: +47%
- % increase/EYP001 (Cmax) [2, 53]: +41%
- exposure and C max compared to EYP001 free acid ([2]; rat): superiority
- onset temperature of thermal decomposition (TGA) ([3]; heater ramp 10 ° C./min, nitrogen): 254 °C
- mass loss before the beginning of thermal decomposition (TGA) ([3]; upon heating): no mass loss
